Several values for one entry are separate records, joined by “and”; a condition that tells them apart may be missing. Identical values can stand only once. Like-named read-outs stand apart in the source and are kept apart here.
Key:
[1] = tested on: carrageenan-induced rat paw edema; test: Carrageenan-induced rat paw edema model; assay type: in vivo; settings: 75 mg/kg equivalent dose of aspirin, p.o.
Protocol: Male or female Sprague-Dawley rats weighing 150-200 g were used in the study. The rats were fed normal standard laboratory chow and maintained under standard conditions (room temperature of 22 ± 2 °C; 50 ± 10 % relative humidity; artificial light 06:00 to 18:00). All experimental procedures mentioned below are approved by institutional animal research committees and were performed in accordance with standard guidelines for the treatment of animals.
Anti-inflammatory activity of test compounds was measured in carrageenan-induced rat paw edema model (Takeuchi et al., J. Pharmacol. Exp. Ther. 1998, 286 (1), 115-121). […] We have not yet evaluated I-C1-NOPD5Bin this efficacy test.

mucosal damage = settings: rats, oral, 3 hours after administration
[2] = In vitro plasma stability; settings: rat plasma at 37 °C, 30 minutes incubation, HPLC analysis
Protocol: HPLC: Waters Allience analytical HPLC equipped with 2996 PDA detector and Empower software were used to analyze the samples.
HPLC Column: Waters X-Terra RP-18 analytical column, 150 X 3.9 mm, 5 .
HPLC Method: Flow: 1 mL/min, detecter set at 210 nm and at Maxplot (210-400 nm range). Solvent A: Acetonitrile; Solvent B: 0.1% TFA in water. Elution method: A linear gradient of 0-100% A.
The compounds were extracted back into acetonitrile with rigorous vortex.

[3] = Oral pharmacokinetics (plasma salicylate by HPLC); settings: rats, 35 mg/kg equivalent dose
MES-induced seizures [4] = test: Test 1: Maximal Electroshock Test (MES), mice i.p.; assay type: in vivo; settings: for MES: class symbol = dose
Protocol: (§1) Most of the prodrugs and mutual prodrugs of anticonvulsants described in this invention were evaluated at National Institute of Neurological Disorders and Stroke (NINDS), National Institute of Health (NIH), under their Antiepileptic Screening Program (ASP).
(§2) Test 1 is an initial screening for anticonvulsant activity in the Maximal Electroshock Test (MES) and Subcutaneous Metrazol Seizure Threshold Test (scMET) models combined with an initial assessment of toxicity (TOX) in mice via i.p. injection (see further explanation below). The data for each condition is presented as N/F, where N = number of animals protected from seizure and F = number of animals tested. For test of toxicity, N = number of animals displaying toxic effects and F = number of animals tested. Any deaths occurring during the test were recorded.
(§3) Maximal Electroshock Test (MES): The MES is a model for generalized tonic-clonic seizure and provides an indication of a compound's ability to prevent seizure spread when all neuronal circuits in the brain are maximally active. These seizures are highly reproducible and electro-physiologically consistent with human seizures. For all tests based on MES convulsions, 60 Hz of alternating current (50 mA in mice) is delivered for […] by corneal electrodes, which have been primed with an electrolyte solution containing an anesthetic agent (0.5% tetracaine hydrochloride). Mice were tested at various intervals following doses of 30, 100 and 300 mg/kg of test compound given by i.p. injection of a volume of 0.01 mL/g. Other doses can be used if indicated by previously known pharmacology. An animal is considered "protected" from MES-induced seizures upon abolition of the hind-limb tonic extensor component of the seizure.

clonic seizures [5] = test: Test 1: Subcutaneous Metrazol Seizure Threshold Test (scMET), mice i.p.; assay type: in vivo; settings: class symbol = dose
Protocol: as §1, §2
(§4) Subcutaneous Metrazol Seizure Threshold Test (scMET): Subcutaneous injection of the convulsant metrazol produces clonic seizures in laboratory animals. […] Animals were pretreated with various doses of the test compound given by i.p. injection. At the previously determined Time to Peak Effect (TPE) of the test compound, the dose of metrazol which will produce convulsions in 97% of animals (CD97: 85 mg/kg in mice) was injected into a loose fold of skin in the midline of the neck. The animals were placed in isolation cages to minimize stress and observed for the next 30 minutes for the presence or absence of a seizure. An episode of clonic spasms, approximately […], of the fore and/or hind limbs, jaws, or vibrissae is taken as the end point.

[6] = tested on: minimal muscular or neurological impairment; test: Test 1: Acute toxicity, minimal motor impairment (rotorod), mice i.p.; assay type: in vivo; settings: for Rotorod Toxicity: class symbol = dose
Protocol: as §1, §2

MES-induced seizures [7] = test: Test 2: MES, rats p.o.; assay type: in vivo; settings: 30 mg/kg
Description: as §3
(§5) Rats received test compounds orally.

Neurological toxicity [8] = test: Test 2: neurological toxicity, rats p.o.; assay type: in vivo; settings: 30 mg/kg
Description: as §5

MES-induced seizures [9] = test: Test 3: MES quantification (time to peak effect, ED50), rats p.o.; assay type: in vivo; settings: for Biological Response MES (number of animal protected/number of animal tested): time 6 h
clonic seizures [10] = test: Test 3: scMET, rats p.o.; assay type: in vivo; settings: 50 mg/kg
Protocol: as §4, §5
(§6) Table 1: Primary Screening (Test 1) data for Anticonvulsant Activity and Neurotoxicity in Mice (test compound administered i.p.)

Neurological toxicity [11] = test: Test 3: neurological toxicity, rats p.o.; assay type: in vivo
Description: as §5, §6

CC(=O)Oc1ccccc1C(=O)NC(=O)OCCSSCCO[N+](=O)[O-] [I-C1-NOPD5A]
anti-inflammatory activity (in words) [1]: negligible anti-inflammatory activity at any time point tested
ulcer development (in words) (mucosal damage; 200 mg/kg equivalent doses): none of the animals treated with the test compounds showed any signs of development of ulcers
release of parent drug / conversion to salicylate [2]: converting to the expected metabolite (salicylate)

CC(=O)Oc1ccccc1C(=O)NCCSSCCO[N+](=O)[O-] [I-C1-NOPD6]
ulcer development (in words) (mucosal damage; 100 mg/kg equivalent doses): none of the animals treated with the test compounds showed any signs of development of ulcers
prodrug or salicylate found in plasma ([3]; any time point up to 24 hrs): neither the prodrug nor the salicylate was found in the plasma

CCOC(=O)CC1(CNC(=O)OCCSSCCOC(=O)Nc2nnc(-c3cccc(Cl)c3Cl)c(N)n2)CCCCC1 [I-AA-MPD12]
activity in MES (Test 1, in words) (MES-induced seizures [4]): active in MES
MES (number of animal protected/number of animal tested) (MES-induced seizures [4]; 100 mg/kg (++), 4.0 h): 3/3
MES (number of animal protected/number of animal tested) (MES-induced seizures [4]; 100 mg/kg (++), 6 hours after dosing): 1/3
MES (number of animal protected/number of animal tested) (MES-induced seizures [4]; 300 mg/kg (+), 4.0 h): 1/1
MES (MES-induced seizures [4]; 0.5 h): - (- = no activity or no toxicity at 300 mg/kg)
MES (MES-induced seizures [4]; at 6 hours after dosing (footnotes g, m)): ++ (++ = activity or toxicity at 100 mg/kg)
ScMET (clonic seizures [5]; 0.5 h): - (- = no activity or no toxicity at 300 mg/kg)
ScMET (clonic seizures [5]; 4.0 h): - (- = no activity or no toxicity at 300 mg/kg)
toxicity (Test 1, in words) [6]: no or mild toxicity
Rotorod Toxicity ([6]; 0.5 h): - (- = no activity or no toxicity at 300 mg/kg)
Rotorod Toxicity ([6]; 4.0 h): - (- = no activity or no toxicity at 300 mg/kg)
MES (number of animal protected/number of animal tested) (MES-induced seizures [7]; 0.50 h): 0/4
MES (number of animal protected/number of animal tested) (MES-induced seizures [7]; 1.00 h): 0/4
MES (number of animal protected/number of animal tested) (MES-induced seizures [7]; 2.00 h): 1/4
MES (number of animal protected/number of animal tested) (MES-induced seizures [7]; 4.00 h): 3/4
Toxicity (number of animals exhibiting toxicity/number of animals tested) (Neurological toxicity [8]; 0.50 h): 0/4
Toxicity (number of animals exhibiting toxicity/number of animals tested) (Neurological toxicity [8]; 1.00 h): 0/4
Toxicity (number of animals exhibiting toxicity/number of animals tested) (Neurological toxicity [8]; 2.00 h): 0/4
Toxicity (number of animals exhibiting toxicity/number of animals tested) (Neurological toxicity [8]; 4.00 h): 0/4
Time to Peak Effect MES (number of animal protected/number of animal tested) (MES-induced seizures [9]; 15 mg/kg, 6.0 h): 2/4
Time to Peak Effect MES (number of animal protected/number of animal tested) (MES-induced seizures [9]; 15 mg/kg, 8.0 h): 1/4
Time to Peak Effect MES (number of animal protected/number of animal tested) (MES-induced seizures [9]; 30 mg/kg, 0.5 h): 0/4
Time to Peak Effect MES (number of animal protected/number of animal tested) (MES-induced seizures [9]; 30 mg/kg, 1.0 h): 0/4
Time to Peak Effect MES (number of animal protected/number of animal tested) (MES-induced seizures [9]; 30 mg/kg, 2.0 h): 1/4
Time to Peak Effect MES (number of animal protected/number of animal tested) (MES-induced seizures [9]; 30 mg/kg, 4.0 h): 3/4
Time to Peak Effect MES (number of animal protected/number of animal tested) (MES-induced seizures [9]; 30 mg/kg, 6.0 h): 4/4
Time to Peak Effect MES (number of animal protected/number of animal tested) (MES-induced seizures [9]; 30 mg/kg, 8.0 h): 4/4
Time to Peak Effect MES (number of animal protected/number of animal tested) (MES-induced seizures [9]; 30 mg/kg, 24 h): 2 out of 4 and 2/4
potency compared with parent drug lamotrigine (in words) (MES-induced seizures [9]; MES): less potent than lamotrigine
ED50 (MES-induced seizures [9]; MES model, at the compound's time of peak effect (4, 6 or 8 h)): 17 mg/kg
duration of protection (in words) (MES-induced seizures [9]; MES, 30 mg/kg, up to 24 h): significant extension in the duration of protection
time to peak effect (MES-induced seizures [9]; MES, dose of 30 mg/kg): 6.0 to 8.0 h
Biological Response MES (number of animal protected/number of animal tested) (MES-induced seizures [9]; dose 7.5 mg/kg): 0/8
Biological Response MES (number of animal protected/number of animal tested) (MES-induced seizures [9]; dose 15 mg/kg): 5/8
Biological Response MES (number of animal protected/number of animal tested) (MES-induced seizures [9]; dose 30 mg/kg): 7/8
Biological Response MES (number of animal protected/number of animal tested) (MES-induced seizures [9]; dose 60 mg/kg): 7/8
Time to Peak Effect ScMET (number of animal protected/number of animal tested) (clonic seizures [10]; 1.0 h): 1/4
Time to Peak Effect ScMET (number of animal protected/number of animal tested) (clonic seizures [10]; 2.0 h): 0/4
Time to Peak Effect ScMET (number of animal protected/number of animal tested) (clonic seizures [10]; 4.0 h): 0/4
Time to Peak Effect ScMET (number of animal protected/number of animal tested) (clonic seizures [10]; 6.0 h): 1/4
Time to Peak Effect ScMET (number of animal protected/number of animal tested) (clonic seizures [10]; 8.0 h): 2/4
Time to Peak Effect ScMET (number of animal protected/number of animal tested) (clonic seizures [10]; 24 h): 0/4
toxicity (in words) (Neurological toxicity [11]; 50 mg/kg): none of the animals exhibited toxicity
Toxicity (number of animals exhibiting toxicity/number of animals tested) (Neurological toxicity [11]; 50 mg/kg, 1.0 h): 0/4 (5 0)
Toxicity (number of animals exhibiting toxicity/number of animals tested) (Neurological toxicity [11]; 50 mg/kg, 2.0 h): 0/4 (50)
Toxicity (number of animals exhibiting toxicity/number of animals tested) (Neurological toxicity [11]; 50 mg/kg, 4.0 h): 0/4 (50)
Toxicity (number of animals exhibiting toxicity/number of animals tested) (Neurological toxicity [11]; 50 mg/kg, 6.0 h): 0/4 (50)
Toxicity (number of animals exhibiting toxicity/number of animals tested) (Neurological toxicity [11]; 50 mg/kg, 8.0 h): 0/4 (50)
Toxicity (number of animals exhibiting toxicity/number of animals tested) (Neurological toxicity [11]; 50 mg/kg, 24 h): 0/4 (50)
toxicity (in words) (Neurological toxicity [11]; 100 mg/kg): one of eight animals exhibited mild ataxia
Toxicity (number of animals exhibiting toxicity/number of animals tested) (Neurological toxicity [11]; 100 mg/kg, 8.0 h, mild ataxia only (footnote h)): 1/8 (100)^h

CC(=O)Oc1ccccc1C(=O)OCCSSCCO[N+](=O)[O-] [I-C1-NOPD4]
anti-inflammatory activity (in words) [1]: significant activity during the first two hours after drug administration
ulcer development (in words) (mucosal damage; 100 mg/kg equivalent doses): none of the animals treated with the test compounds showed any signs of development of ulcers
release of parent drug / conversion to salicylate [2]: converting to the expected metabolite (salicylate)

CC(=O)Oc1ccccc1C(=O)[N-]C(=O)OCCSSCCO[N+](=O)[O-].[Na+] [I-C1-NOPD5B]
ulcer development (in words) (mucosal damage; 200 mg/kg equivalent doses): none of the animals treated with the test compounds showed any signs of development of ulcers
salicylate release profile (in words) [3]: released in a sustained and controlled manner starting from 1 hour through 12 hours

Source: EP2266622A2, “Prodrugs containing novel bio-cleavable linkers” (Piramal Life Sciences Limited, priority 2004, dated 2006)
